Data: patent US8742106B2 (Novartis AG, priority 2009, dated 2014)

Legend:
human orexin 1 receptors [1] = target: T1, human orexin 1 receptors (Homo sapiens (Human), UniProt O43613); experiment: Radioligand Binding Assay II ([3H]-SB649868 competition, cell membranes); settings: read-out: binding II hOx1R Kd
Description: (§1) Radioligand Binding Assay II
(§2) For crude cell membrane preparations, cells (CHO, Chinese hamster ovary or HEK, human embryonic kidney) expressing human orexin 1 or human orexin 2 receptors, were washed with HEPES (10 mM, pH 7.5), scraped off the culture plates with the same buffer, and centrifuged at 4° C. for 5 min at 2500×g. The cell pellet was either stored at −80° C. or used directly. Before the experiments, cell membranes were re-suspended in binding assay buffer (10 mM HEPES, 0.5% (w/v) bovine serum albumin, pH 7.5) by homogenisation with a Polytron homogeniser at 50 Hz for 20 s. Cell membranes were also used as made available by commercial providers.
(§3) Bound radioactivity was measured, and data were analysed with the program XLFIT or Graphpad Prism. Protein concentration was determined according to the Bradford/BioRad Protein Assay Kit.
(§4) In competition experiments, cell homogenates (150 μl) were incubated in assay buffer (10 mM HEPES, pH 7.5, 0.5% (w/v) bovine serum albumin, 5 mM MgCl2, 1 mM CaCl2, and tween 0.05%) for 1 h at room temperature with about 1 nM of the radioligand [^3H]-SB649868, 66 Ci/mmole, 50 μl), and with various concentrations of compounds of the invention (50 μl) in triplicates; non-specific binding was determined in the presence of almorexant (10 μM). Reactions were terminated by vacuum filtration, 3 washes of ice cold wash buffer (Tris-HCl pH 7.4/10 mM, with NaCl 154 mM). Competition data is expressed in Table 2 as Kd [μM].

human orexin 1 receptors [2] = target: T1, human orexin 1 receptors; experiment: Calcium Accumulation in Cells (FLIPR), antagonism of orexin A; format: cell-based; settings: antagonism of orexin A, Cheng-Prusoff corrected; read-out: FLIPR hOx1R Ki
human orexin 2 receptors [3] = target: T2, human orexin 2 receptors (Homo sapiens (Human), UniProt O43614); experiment: as above; format: cell-based; settings: antagonism of orexin A, Cheng-Prusoff corrected; read-out: FLIPR hOx2R Ki
T2 sequence (O43614 whole entry): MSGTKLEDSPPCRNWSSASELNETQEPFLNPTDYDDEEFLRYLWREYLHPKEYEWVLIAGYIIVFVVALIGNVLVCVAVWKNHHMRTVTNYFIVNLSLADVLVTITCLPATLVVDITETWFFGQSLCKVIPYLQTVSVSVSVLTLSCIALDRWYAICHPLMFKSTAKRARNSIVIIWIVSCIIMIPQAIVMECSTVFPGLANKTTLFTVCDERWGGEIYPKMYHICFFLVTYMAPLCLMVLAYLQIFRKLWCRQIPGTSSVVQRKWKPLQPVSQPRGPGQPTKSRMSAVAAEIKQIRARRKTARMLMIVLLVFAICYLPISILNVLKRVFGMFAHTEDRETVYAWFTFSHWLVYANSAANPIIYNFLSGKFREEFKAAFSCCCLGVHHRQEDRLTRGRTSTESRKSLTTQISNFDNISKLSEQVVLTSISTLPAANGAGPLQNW
How it was run: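 Antagonism was measured as block of orexin A-evoked Ca²⁺ fluorescence (FLIPR), with orexin A added one hour after test compound (usually 10^−9–10^−5 M), which was first read alone for agonist activity. Human orexin 2 receptor cells were dye-loaded with 2 μM Fluo4-AM and 0.1 mM probenecid for 1 h.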

human orexin 2 receptors [4] = target: T2, human orexin 2 receptors; experiment: Radioligand Binding Assay II ([3H]-SB649868 competition, cell membranes); settings: read-out: binding II hOx2R Kd
Description: as §1, §2, §3
as §4, with “mM).” for “mM). Competition data is expressed in Table 2 as Kd [μM].”

T1 sequence (O43613 whole entry): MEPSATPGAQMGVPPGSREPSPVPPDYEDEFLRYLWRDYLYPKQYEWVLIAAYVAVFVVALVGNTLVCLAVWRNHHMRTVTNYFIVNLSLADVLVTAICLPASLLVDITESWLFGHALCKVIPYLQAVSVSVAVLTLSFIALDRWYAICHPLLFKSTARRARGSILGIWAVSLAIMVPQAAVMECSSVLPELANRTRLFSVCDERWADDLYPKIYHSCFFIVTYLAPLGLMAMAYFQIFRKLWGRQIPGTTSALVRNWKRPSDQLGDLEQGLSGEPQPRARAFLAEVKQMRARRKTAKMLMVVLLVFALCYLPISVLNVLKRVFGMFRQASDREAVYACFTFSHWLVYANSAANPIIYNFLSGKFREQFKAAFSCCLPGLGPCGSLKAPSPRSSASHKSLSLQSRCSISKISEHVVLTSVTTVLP

SMILES	Kd (human orexin 1 receptors [1]) [nM]	Ki (human orexin 1 receptors [2]) [nM]	Ki (human orexin 2 receptors [3]) [nM]	Kd (human orexin 2 receptors [4]) [nM]
Cc1ccc(C(C)(C)NC(=O)COc2cc(C)c3c(C4CC4)nn(C)c3n2)cc1 [Example 6.6, 2-(3-cyclopropyl-1,4-dimethyl-1H-pyrazolo[3,4-b]pyridin-6-yloxy)-N-(2-p-tolylpropan-2-yl)acetamide]	1010	606	47	138
COc1ccc([C@H](C)NC(=O)COc2cc(C(F)F)c3c(C4CC4)nn(C)c3n2)cc1 [Example 6.7, (S)-2-(3-cyclopropyl-4-(difluoromethyl)-1-methyl-1H-pyrazolo[3,4-b]pyridin-6-yloxy)-N-(1-(4-methoxyphenyl)ethyl)acetamide]	36	68	21	27
Cc1ccc([C@H](C)NC(=O)COc2cc(C(F)F)c3c(C4CC4)nn(C)c3n2)cc1 [Example 6.8, (S)-2-(3-cyclopropyl-4-(difluoromethyl)-1-methyl-1H-pyrazolo[3,4-b]pyridin-6-yloxy)-N-(1-p-tolylethyl)acetamide]	22	14	5	19
Cc1ccc([C@H](C)NC(=O)COc2cc(C(F)(F)F)c3c(C4CC4)nn(C)c3n2)cc1 [Example 6.13, (S)-2-(3-cyclopropyl-1-methyl-4-(trifluoromethyl)-1H-pyrazolo[3,4-b]pyridin-6-yloxy)-N-(1-p-tolylethyl)acetamide]	44	52	6	14
COc1ccc(C(C)NC(=O)COc2cc(C(F)(F)F)c3c(C4CC4)nn(C)c3n2)cn1 (stereo not drawn) [Example 6.14, 2-(3-cyclopropyl-1-methyl-4-(trifluoromethyl)-1H-pyrazolo[3,4-b]pyridin-6-yloxy)-N-(1-(6-methoxypyridin-3-yl)ethyl)acetamide]	428	523	72	141
COc1ccc([C@H](C)NC(=O)COc2cc(C(F)(F)F)c3c(C4CC4)nn(C)c3n2)cc1 [Example 6.15, (S)-2-(3-cyclopropyl-1-methyl-4-(trifluoromethyl)-1H-pyrazolo[3,4-b]pyridin-6-yloxy)-N-(1-(4-methoxyphenyl)ethyl)acetamide]	146	160	12	37
COc1ccc([C@H](C)NC(=O)COc2cc(C(F)F)c3c(-c4ccccc4)nn(C)c3n2)cc1 [Example 6.17, (S)-2-(4-(difluoromethyl)-1-methyl-3-phenyl-1H-pyrazolo[3,4-b]pyridin-6-yloxy)-N-(1-(4-methoxyphenyl)ethyl)acetamide]	11	19	2	7
Cc1nn(C)c(C)c1C(C)NC(=O)COc1cc(C(F)F)c2c(-c3ccccc3)nn(C)c2n1 (stereo not drawn) [Example 6.20, 2-(4-(difluoromethyl)-1-methyl-3-phenyl-1H-pyrazolo[3,4-b]pyridin-6-yloxy)-N-(1-(1,3,5-trimethyl-1H-pyrazol-4-yl)ethyl)acetamide]	22	63	59	90
Cc1ccc([C@H](C)NC(=O)COc2cc(C(F)F)c3c(-c4ccccc4)nn(C)c3n2)cc1 [Example 6.21, (S)-2-(4-(difluoromethyl)-1-methyl-3-phenyl-1H-pyrazolo[3,4-b]pyridin-6-yloxy)-N-(1-p-tolylethyl)acetamide]	37	29	7	30
COc1ccc(C(C)NC(=O)COc2cc(C(F)F)c3c(-c4ccccc4)nn(C)c3n2)cn1 (stereo not drawn) [Example 6.22, 2-(4-(difluoromethyl)-1-methyl-3-phenyl-1H-pyrazolo[3,4-b]pyridin-6-yloxy)-N-(1-(6-methoxypyridin-3-yl)ethyl)acetamide]	56	175	37	42
COc1ccccc1-c1nn(C)c2nc(OCC(=O)N[C@@H](C)c3ccc(C)cc3)ccc12 [Example 6.24, (S)-2-(3-(2-methoxyphenyl)-1-methyl-1H-pyrazolo[3,4-b]pyridin-6-yloxy)-N-(1-p-tolylethyl)acetamide]	45	133	105	150
Cc1ccc([C@H](C)NC(=O)COc2ccc3c(C(C)(C)C)nn(C)c3n2)cc1 [Example 6.25, (S)-2-(3-tert-butyl-1-methyl-1H-pyrazolo[3,4-b]pyridin-6-yloxy)-N-(1-p-tolylethyl)acetamide]	242	545	65	164
Cc1ccc([C@H](C)NC(=O)COc2cc(C)c3c(C(C)C)nn(C)c3n2)cc1 [Example 6.26, (S)-2-(3-isopropyl-1,4-dimethyl-1H-pyrazolo[3,4-b]pyridin-6-yloxy)-N-(1-p-tolylethyl)acetamide]	119	164	32	76
Cc1ccc([C@H](C)NC(=O)COc2cc(C)c3c(-c4cc(C)oc4C)nn(C)c3n2)cc1 [Example 6.30, (S)-2-(3-(2,5-dimethylfuran-3-yl)-1,4-dimethyl-1H-pyrazolo[3,4-b]pyridin-6-yloxy)-N-(1-p-tolylethyl)acetamide]	19	10	62	168
COc1ccc([C@H](C)NC(=O)COc2cc(C)c3c(-c4cc(C)oc4C)nn(C)c3n2)cc1 [Example 6.31, (S)-2-(3-(2,5-dimethylfuran-3-yl)-1,4-dimethyl-1H-pyrazolo[3,4-b]pyridin-6-yloxy)-N-(1-(4-methoxyphenyl)ethyl)acetamide]	40	18	47	221
Cc1cc(-c2nn(C)c3nc(OCC(=O)NC(C)c4c(C)nn(C)c4C)cc(C)c23)c(C)o1 (stereo not drawn) [Example 6.33, 2-(3-(2,5-dimethylfuran-3-yl)-1,4-dimethyl-1H-pyrazolo[3,4-b]pyridin-6-yloxy)-N-(1-(1,3,5-trimethyl-1H-pyrazol-4-yl)ethyl)acetamide]	14	11	170	126
COc1ccc([C@H](C)NC(=O)COc2cc(C)c3c(-c4ccoc4C)nn(C)c3n2)cc1 [Example 6.34, (S)-2-(1,4-dimethyl-3-(2-methylfuran-3-yl)-1H-pyrazolo[3,4-b]pyridin-6-yloxy)-N-(1-(4-methoxyphenyl)ethyl)acetamide]	70	103	113	188
COc1ccnc(-c2nn(C)c3nc(OCC(=O)N[C@@H](C)c4ccc(C)cc4)cc(C)c23)c1 [Example 6.37, (S)-2-(3-(4-methoxypyridin-2-yl)-1,4-dimethyl-1H-pyrazolo[3,4-b]pyridin-6-yloxy)-N-(1-p-tolylethyl)acetamide]	6	7	10	17
Cc1ccc2c(n1)CC[C@@H]2NC(=O)COc1cc(C(F)F)c2c(-c3cc(C)oc3C)nn(C)c2n1 [Example 6.38, (S)-2-(4-(difluoromethyl)-3-(2,5-dimethylfuran-3-yl)-1-methyl-1H-pyrazolo[3,4-b]pyridin-6-yloxy)-N-(2-methyl-6,7-dihydro-5H-cyclopenta[b]pyridin-5-yl)acetamide]	123	91	64	271
COc1ccc([C@H](C)NC(=O)COc2cc(C(F)F)c3c(-c4cc(C)oc4C)nn(C)c3n2)cc1 [Example 6.39, (S)-2-(4-(difluoromethyl)-3-(2,5-dimethylfuran-3-yl)-1-methyl-1H-pyrazolo[3,4-b]pyridin-6-yloxy)-N-(1-(4-methoxyphenyl)ethyl)acetamide]	20	15	46	65
Cc1ccc2c(c1)CCC2NC(=O)COc1cc(C)c2c(C3CC3)nn(C)c2n1 (stereo not drawn) [Example 6.41, 2-(3-cyclopropyl-1,4-dimethyl-1H-pyrazolo[3,4-b]pyridin-6-yloxy)-N-(5-methyl-2,3-dihydro-1H-inden-1-yl)acetamide]	908	495	29	225
